Consider four compounds from article PMC12621202, “RTx-303, an Orally Bioavailable Polθ Polymerase Inhibitor That Potentiates PARP Inhibitors in BRCA Mutant Tumors” (Journal of Medicinal Chemistry, 2025).

Like-named read-outs stand apart in the source and are kept apart here. A value given as a limit tells only on which side of the number the result lay.

Data set [1] relates to BRCA2^-/- HCT116. Kind of data set: Clonogenic (colony) survival assay. To be noted: for IC50: Homo sapiens; for fold lower IC50 in BRCA2–/– HCT116 cells compared to RTx-161 / selectivity against BRCA2–/– versus BRCA+/+ HCT116 cells: clonogenic survival. It counts as cell-based, human. The method, then: (§1) Colony survival assays were performed on 24-well plates. 800 cells/well of HCT, DLD1- BRCA2 −/–, PALB2 −/–, MEF BRCA1 […], PEO1, SNU-601, SKOV3- BRCA2 −/–, OVCAR8 cells and 200 cells/well of HCT, DLD1, MEF, SKOV3 wildtype cells were plated. For MDA pair, 500 cells/well of MDA436 and 100 cells of MDA231 were plated. Cells were treated with the compound 24 h after plating and the medium was replaced every two or 3 days until the colonies were ready for staining. Colonies were typically ready for staining in 10–12 days. For staining: Medium was removed from plates, and cells were rinsed with PBS. Fixation was carried out with Water:Ethanol:Acetic acid (5:4:1) for 30 min followed by staining of colonies with 0.5% crystal violet in Water:Ethanol (3:2) for 2 h at room temperature. The plates were rinsed with water and left for drying overnight at room temperature. Colonies were then counted manually, and response curves are shown as mean colony formation ± SEM. IC50 was calculated with GraphPad Prism using nonlinear regression analysis, inhibitor vs response (variable slope) equation.

The subject of data set [2] is BRCA2^+/+ HCT116. As to the kind of experiment: Clonogenic (colony) survival assay. It counts as cell-based. The note with it: Homo sapiens. As for the experimental part: as §1
Data set [3] can be described thus: Hepatocyte stability. It counts as in vitro ADME. To be noted: cryopreserved hepatocytes. The method, then:
Hepatocyte stability assays. Cryopreserved mouse hepatocytes (24 donors, male CD1 mice; Xenotech product M1000.H15+) or human hepatocytes (100 donors; mixed gender; Xenotech product HCP100.H15) were rapidly thawed, diluted with Optithaw (Xenotech product K8500) and centrifuged 5 min at 100 × g. The resuspended cells were stained with 0.016% Trypan Blue and counted. Cell viability was >80%. 0.25 mL of a 1 × 10^6 viable cells/ml cell suspension was added to 16 mm diameter wells of an uncoated polystyrene plate. The prewarmed plate was placed in a 37 °C incubator with 5% CO2 atm with 100 oscillations/min shaking. After 5 min, 0.25 mL of 2 μM test compound in prewarmed HBSS was added per well and mixed to start the reactions with duplicate reactions per compound. Verapamil as the positive control and cell-free reactions were negative controls. At each time point (0, 2, 5, 10, 30, 60, and 120 min), 50 μL aliquots were transferred to a 96-well stop plate containing 150 μL/well of acetonitrile, 0.1% formic acid and 0.1 μM propafenone. The plate was centrifuged for 10 min at 2300 × g. 150 μL of the supernatant was transferred to a mass spect sample plate. Samples were analyzed by UPLC/MS as described. Results were expressed as T1/2 (min) and in vitro Clint (μL/min/10^6 cells). CLint (μL/min/10^6 cells) estimates were determined using a modified method of McGinnity et al.

The nature of data set [4]: Solubility (PBS, 2% DMSO). To be noted: PBS with 2% DMSO, aqueous buffer, kinetic from dmso stock. It counts as physicochemical. From the text: Solubility T1/2 simulated simulated
(PBS, 2% T1/2 mouse intestinal gastric
CF R1 OHOH DMSO) PBS plasma fluid fluid
F3C N N >200 µMN >3 hr >3 hr >3 hr > 3 hr
NN >200 HOµMN >3 hr >3 hr >3 hr > 3 hr
Supplementary Fig. 2 Solubility and stability of RTx-284 and RTx-283.

A short description of data set [5]: Stability in PBS, simulated gastric fluid and simulated intestinal fluid. It counts as in vitro ADME. To be noted: for stability in simulated intestinal and gastric fluids, plasma and PBS buffer: statement in words covering all four matrices. The method, then:
Stability in PBS, SGF (simulated gastric fluid) and SIF (simulated intestinal fluid) assays. The stability of test compounds was determined in Dulbecco’s PBS (control solution; pH = 7.4; 136.9 mM NaCl; 2.68 mM KCl; 8.1 mM Na2HPO4; 1.47 mM KH2PO4; 0.9 mM CaCl2 and MgCl2, US Pharmacopeia, defined (US Pharmacopoeia 33–28NF; 2010) Simulated Gastric Fluid (SGF; 0.2% NaCl, 84 mM HCl, pH 1.2 with 3.2 mg/mL pepsin from porcine gastric mucosa), or US Pharmacopoeia-defined Simulated Intestinal Fluid (SIF; 50 mM potassium phosphate, pH 6.8; with 10 mg/mL pancreatin from porcine pancreas). Reactions were conducted in 96-well deep-well (1 mL) polypropylene plates in duplicate. 540 μL of prewarmed 1.11× PBS, SGF or SIF was added to wells of the prewarmed plate in the Labnet Vortemp incubator at 37 °C. Reactions were initiated by adding 60 μL of a 50 μM test compound in water (final concentration of 5 μM) to test wells. Samples were mixed and incubated with gentle shaking. At 0, 30, 90, 210 min, 75 μL aliquots were transferred to a stop plate (96-well plate with 300 μL of ACN:water 1:1 with 0.05 μM propafenone) on ice. After all time points, the stop plate was centrifuged 10 min at 2270 × g in a Beckman Coulter Allegra 6R centrifuge and 170 μL of the supernatants were transferred to a Waters Acquity UPLC 700 μL 96-well sample plate and sealed with a cap mat. After centrifugation (10 min; 4000 × g), supernatants were analyzed by LC/MS as described. Standard curves (0–1000 nM) were generated in PBS and plasma. Data were fit to a one-phase decay equation using GraphPad Prism 5.04 to generate T1/2 values.

Where [6] appears, read: HCT-116, read-out: IC50 BRCA2^-/- HCT116 (μM).
The mark [7] stands for this setting: HCT-116, read-out: IC50 BRCA2^+/+ HCT116 (μM).
Setting [8] is: mouse (CD1, male) hepatocytes, read-out: T1/2 mouse hepatocytes.
The mark [9] stands for this setting: Dulbecco's PBS, pH 7.4, read-out: T1/2 PBS.
The mark [10] stands for this setting: simulated gastric fluid (SGF) with pepsin, pH 1.2, read-out: T1/2 simulated gastric fluid.
Where [11] appears, read: simulated intestinal fluid (SIF) with pancreatin, pH 6.8, read-out: T1/2 simulated intestinal fluid.
The mark [12] stands for this setting: both sexes, human hepatocytes, mixed gender, read-out: Human* (T1/2 min).

The solubility is the dissolved amount per volume that the medium holds. A lower solubility goes with little dissolved substance. With `[2H]C([2H])([2H])N(C(=O)Oc1c(N2CCN(CC(O)CN(C)C)C2=O)cc(C(F)(F)F)cc1C(F)(F)F)c1ccc(F)cc1` (stereo not drawn) [RTx-284, 2-{3-[3-(Dimethylamino)-2-hydroxypropyl]-2-oxoimidazolidin-1-yl}-4,6-bis(trifluoromethyl)phenyl N-(4-fluorophenyl)-N-(methyl-d3)-carbamate], the values for the IC50 in data set [1] (setting [6]) and in data set [2] (setting [7]) were 0.11 µM and greater than 12 µM, respectively. In addition, in data set [1], the “fold lower IC50 in BRCA2–/– HCT116 cells compared to RTx-161” value was greater than 10 fold. In data set [1], the “selectivity against BRCA2–/– versus BRCA+/+ HCT116 cells” value is recorded as greater than 100 fold. Besides, the half-life at 1 μM in data set [3] (setting [8]) is 0.32 h. In data set [4], the solubility was greater than 200 µM. The half-life at 5 μM in data set [5] (setting [9]), in data set [5] (setting [10]) and in data set [5] (setting [11]) was greater than 3 h throughout.
In the case of `[2H]C([2H])([2H])N(C(=O)Oc1c(N2CCN(C[C@H](O)CNC)C2=O)cc(C(F)(F)F)cc1C(F)(F)F)c1ccc(F)cc1` [RTx-315], the results for the half-life at 1 μM in data set [3] (setting [12]) and in data set [3] (setting [8]) were 0.937 h and 1.15 h, respectively. Moreover, the “stability in simulated intestinal and gastric fluids, plasma and PBS buffer” value in data set [5] is “high stability”.
For the compound `[2H]C([2H])([2H])N(C(=O)Oc1c(N2CCN(C[C@H](O)CN(C)C)C2=O)cc(C(F)(F)F)cc1C(F)(F)F)c1ccc(F)cc1` [RTx-303], the IC50 is 0.0812 µM in data set [1] (HCT-116, read-out: IC50(nM) HCT116 BRCA2 –/–) and greater than 1.28 µM in data set [2] (HCT-116, read-out: IC50(nM) HCT116 BRCA2 +/+). The values for the half-life at 1 μM in data set [3] (setting [12]) and in data set [3] (setting [8]) were 1 h and 0.412 h, respectively. In data set [4], the solubility was greater than 200 µM. Also, the “stability in simulated intestinal and gastric fluids, plasma and PBS buffer” value in data set [5] was “high stability”.
Turning to `[2H]C([2H])([2H])N(C(=O)Oc1c(N2CCN(CC(O)CNC)C2=O)cc(C(F)(F)F)cc1C(F)(F)F)c1ccc(F)cc1` (stereo not drawn) [RTx-283, 2-(3-(2-Hydroxy-3-(methylamino)propyl)-2-oxoimidazolidin-1-yl)-4,6-bis(trifluoromethyl)phenyl (4-fluorophenyl)(methyl-d3)carbamate], the figures for the IC50 in data set [1] (setting [6]) and in data set [2] (setting [7]) were 0.03 µM and 16.3 µM, respectively. The “fold lower IC50 in BRCA2–/– HCT116 cells compared to RTx-161” value in data set [1] is recorded as greater than 10 fold. Besides, the “selectivity against BRCA2–/– versus BRCA+/+ HCT116 cells” value in data set [1] is recorded as greater than 100 fold. The half-life at 1 μM in data set [3] (setting [8]) is 0.813 h. In data set [4], the solubility was greater than 200 µM. Also, the half-life at 5 μM in data set [5] (setting [9]), in data set [5] (setting [10]) and in data set [5] (setting [11]) was greater than 3 h each time.
